The text below walks through data of patent US10301308B2, “Azetidine derivatives for tau imaging” (Eli Lilly and Company, priority 2015, dated 2019).

What is called Kd is the equilibrium constant for the complex coming apart.

The target in data set [1] is PHF (tau from Alzheimer's disease donors) (Homo sapiens, UniProt P10636). Nature of the data set: Saturation binding of radiolabeled compound to PHF (Kd determination). The following applies: tau obtained from donors with Alzheimer's disease. An excerpt:
Purified, soluble PHF is isolated from AD brain tissue using a protocol modified from the procedure described by Jicha, et al. (G. A. Jicha, A. O'Donnell, C. Weaver (1999) “Hierarchical phosphorylation of recombinant tau by the paired-helical filament-associated protein kinase is dependent on cyclic AMP-dependent protein kinase” J Neurochem. 72(1):214). Briefly, AD cortex is homogenized using a handheld Kinematica Polytron, followed by high pressure batch—gas expansion using a Parr Cell disruption bomb. Crude homogenate is centrifuged at 28 kg to pellet cell debris. […]
The dissociation constant [Kd] for the radiolabeled compound 3-(3-[18F]-fluoroazetidin-1-yl)-8-methylbenzo[4,5]imidazol[1,2-a]pyridine is determined by saturation binding, in which the total and nonspecific binding of the radioligand are measured at various radioligand concentrations. […] After incubation for 1.5 h at 37° C., the bound radioactivity is harvested by vacuum filtration onto Millipore MultiScreenHTS 96-well glass fiber FB filter plates, using a Millipore MultiScreenHTS Vacuum Manifold, followed by five washes with PBS. Filters containing bound 3-(3-[18F]-fluoroazetidin-1-yl)-8-methylbenzo[4,5]imidazo[1,2-a]pyridine are assayed for radioactivity in a Wizard 2480 automatic gamma-counter [Perkin Elmer]. […]

Data set [2] is described as follows: Mouse PET/CT time activity curves. In kind it is in vivo, CD-1 wild type mice. The procedure: Dynamic Micro-Positron Emission Tomography (mPET) images are obtained from CD-1 wild type mice using 3-(3-[18F]-fluoroazetidin-1-yl)-8-methylbenzo[4,5]imidazo[1,2-a]pyridine. Micro-Computed Tomography (mCT) of each subject is used as anatomical reference for image analysis. Biodistribution of the tracer in brain, muscle, bone, liver, and kidney is assessed by generating Time Activity Curves (TAC) using the fused mPET/mCT images. An INVEON multimodality scanner (Siemens, Germany) is used for mPET/mCT. All animal work is performed in accordance with the University of Sciences Institutional Animal Care & Use Committee-approved procedures.
Animals are anesthetized with 3% isoflurane/97% oxygen and are placed on the scanner bed. A short high-resolution CT scan is first performed for anatomical registration, followed by a 120-minute PET scan. During the PET scan a water heating system is placed underneath the bed to help maintain the body temperature. Within 3 minutes after the beginning of the PET acquisition, the [18F]-labeled compound 3-(3-[18F]-fluoroazetidin-1-yl)-8-methylbenzo[4,5]imidazo[1,2-a]pyridine is administered to the animals via tail vein injection (250 uCi in a total volume of 200 uL saline). A PET image is generated for each minute of the acquisition time. Uptake of the tracer is obtained by visually drawing regions of interest based on the fused PET/CT images, and the corresponding activity values are determined using the INVEON Research Workplace software (Siemens, Germany). All values are represented as percent injected dose per gram (% ID/g).
The mouse PET/CT time activity curves of 3-(4-(2-[18F]-fluoroethyl)piperidin-1-yl)-8-methoxybenzo[4,5]imidazo[1,2-a]pyridine (T821) (See FIG. 9) and of 3-(4-[18F]-fluoropiperidin-1-yl)-8-methoxybenzo[4,5]imidazo[1,2-a]pyridine (T798) (See FIG. 10) are obtained as described in Assay Example 7 (T821 and T798 are recited in US2011/0182812). […] Therefore, when imaging with T821 and/or T798, the undesirable non-tau PET signals from the skull bones could interfere with desired tau signals from the brain cortex. Thus, in addition to the lack of selectivity for T821 and T798, these compounds would further represent poor candidates for human brain tau PET tracers because of the interfering radioactivity signal from bone. […] The advantageous properties of Compound 8 are useful to provide enhanced tau PET imaging in humans. This combination of critical properties was not known and could not have been predicted from existing tau imaging compounds.

The nature of data set [3]: Clinical PET kinetic profile: brain uptake, washout, metabolism. In kind it is in vivo, human. On the procedure: Clinical evaluation of 3-(3-[18F]-Fluoroazetidin-1-yl)-8-methylbenzo[4,5]imidazo[1,2-a]pyridine (Compound 8) as a PET radioligand for imaging tau protein deposition in patients with AD or other neurodegenerative disorders is conducted in healthy volunteers. AD patients, or Chronic Traumatic Encephalopathy (CTE) subjects, by completion of one or more PET scans with Compound 8. Dynamic PET imaging is acquired on a Siemens ECAT EXACT HR+ over 150 minutes following Compound 8 or [18F]AV-1451 injection (0-60 and 90-150 minute imaging segments). Compound 8 or [18F]AV-1451 scans are acquired similarly in two imaging sessions. A brain MRI is also obtained. PET and MRI images are aligned and normalized, and ATLAS-based volumes of interest (VOI) are applied to the dynamic PET series. Compound 8 or [18F]AV-1451 are evaluated in terms of kinetic profile as well as target region to cerebellum standardized uptake value ratio (SUVr between 100-120 min) between healthy volunteers and AD or CTE subjects.

Setting [4] is: mouse PET/CT time activity curves.
[5] abbreviates: tail vein injection, 120-minute PET scan.

SMILES strings stand for the structures.

Chain of PHF (tau from Alzheimer's disease donors) (P10636 623-708 limits assumed): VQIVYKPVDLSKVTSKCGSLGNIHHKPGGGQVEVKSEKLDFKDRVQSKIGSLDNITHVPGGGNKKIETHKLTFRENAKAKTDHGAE

In data set [1], `Cc1ccc2nc3cc(N4CC([18F])C4)ccn3c2c1` [Compound 8, 3-(3-[18F]-fluoroazetidin-1-yl)-8-methylbenzo[4,5]imidazo[1,2-a]pyridine] showed a dissociation constant Kd of 0.85 ± 0.02 nM. In data set [2] (setting [4]), the “bone uptake of radioactivity” value is given as “negligible radioactivity signal in bone”; the “brain uptake compared to T821 and T798” value is “significantly superior and surprising brain uptake”. Also, in data set [2] (mouse PET/CT time activity curves, listed as 3-(3-[18F]-Fluoroazetidin-1-yl)-8-methylbenzo[4,5]imidazo[1,2-a]pyridine), the “bone uptake of radioactivity” value was “no significant uptake of radioactivity in bone tissue”. Moreover, in data set [2] (setting [5]), the “brain entry compared with [18F]AV-1451” value was “higher % ID/g than [18F]AV-1451” and the clearance from brain entry is “cleared quickly”. The intact parent remaining in data set [3] (60 min post injection, n=7) was 5±3%. Also, the “max SUV relative to that of [18F]AV-1451” value in data set [3] (healthy volunteers and AD subjects) was ~50 % higher. In data set [3] (human subjects, dynamic PET), the peak brain uptake is reported as ~8 SUV.
